Laboratory results taken from PubChem BioAssay AID330 (DTP/NCI, 2004).
Several values for one entry are separate records, joined by “and”; a condition that tells them apart may be missing. Identical values can stand only once. Inconclusive results and toxic doses are left out. Square brackets hold non-standard residues; d marks the D form. Peptide text beside a SMILES is read from it. Hpg = N[CH](C(=O)O)c1ccc(O)cc1

Tested on: P388 leukemia ip, CD2F1 mice, survival T/C
Experiment: NCI In Vivo Anticancer Drug Screen. Data for tumor model P388 Leukemia (intraperitoneal) in CD2F1 (CDF1) mice
Conditions: endpoint: median survival time, higher = longer survival
In short: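 Mice carrying the transplanted tumor received test compound or vehicle. Survival was recorded in each group, and the value is the treated-group measurement divided by that of the vehicle-treated control group.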

[1] = dose: 50.0 mg/kg/injection, schedule: Q01DX005 (ip), vehicle: saline with Tween-80
[2] = dose: 100.0 mg/kg/injection, schedule: Q01DX005 (ip), vehicle: saline with Tween-80
[3] = dose: 200.0 mg/kg/injection, schedule: Q01DX005 (ip), vehicle: saline with Tween-80
[4] = dose: 15.0 mg/kg/injection, schedule: Q01DX005 (ip), vehicle: saline with Tween-80
[5] = dose: 30.0 mg/kg/injection, schedule: Q01DX005 (ip), vehicle: saline with Tween-80
[6] = dose: 60.0 mg/kg/injection, schedule: Q01DX005 (ip), vehicle: saline with Tween-80
[7] = dose: 25.0 mg/kg/injection, schedule: Q01DX009 (ip), vehicle: saline + Tween-80 + alcohol
[8] = dose: 50.0 mg/kg/injection, schedule: Q01DX009 (ip), vehicle: saline + Tween-80 + alcohol
[9] = dose: 120.0 mg/kg/injection, schedule: Q01DX005 (ip), vehicle: saline with Tween-80
[10] = dose: 50.0 mg/kg/injection, schedule: Q01DX009 (ip), vehicle: saline
[11] = dose: 100.0 mg/kg/injection, schedule: Q01DX009 (ip), vehicle: saline
[12] = dose: 200.0 mg/kg/injection, schedule: Q01DX009 (ip), vehicle: saline

CC(C)(CO)NCCNC(C)(C)CO
T/C [1]: 98 % of control
T/C [2]: 90 % of control
T/C [3]: 100 % of control

Nc1nnc2nc(CC(=O)c3cccc([N+](=O)[O-])c3Cl)c(=O)[nH]n12
T/C [4]: 106 % of control
T/C [5]: 98 % of control
T/C [6]: 100 % of control and 103 % of control

Cc1ncccc1[N+](=O)[O-]
T/C (dose: 12.5 mg/kg/injection, schedule: Q01DX009 (ip), vehicle: saline + Tween-80 + alcohol): 100 % of control
T/C [7]: 100 % of control
T/C [8]: 106 % of control and 93 % of control

CN(C)CC(C)(CN(C)C)C(=O)/C=C/c1c(Cl)cccc1Cl
T/C [6]: 115 % of control
T/C [9]: 120 % of control

CCC/C=[CH]/[Hg][Cl]
T/C (dose: 6.25 mg/kg/injection, schedule: Q04DX003 (ip), vehicle: other): 110 % of control
T/C (dose: 12.5 mg/kg/injection, schedule: Q04DX003 (ip), vehicle: other): 110 % of control

O=C1Cc2ccccc2N1
T/C [10]: 116 % of control
T/C [11]: 107 % of control
T/C [12]: 105 % of control

CCN(CC)CCCOC(=O)N(Cc1ccc(Cl)cc1)C1CC1
T/C [7]: 108 % of control
T/C [8]: 108 % of control
T/C (dose: 100.0 mg/kg/injection, schedule: Q01DX009 (ip), vehicle: saline + Tween-80 + alcohol): 110 % of control

C=CCC1=C(C2CO2)C(=O)c2ccccc2C1=O (centres undefined)
T/C (dose: 6.25 mg/kg/injection, schedule: Q01DX005 (ip), vehicle: Klucel (hydroxypropylcellulose) (HPC)): 99 % of control
T/C (dose: 12.5 mg/kg/injection, schedule: Q01DX005 (ip), vehicle: Klucel (hydroxypropylcellulose) (HPC)): 99 % of control

CCCCCCCCCCCCCCCCCC(=O)NC(CC(=O)OCCCCCC)c1ccc(N(CCCl)CCCl)cc1 (centres undefined)
T/C (dose: 4.3 mg/kg/injection, schedule: Q01DX009 (ip), vehicle: saline): 163 % of control
T/C (dose: 8.6 mg/kg/injection, schedule: Q01DX009 (ip), vehicle: saline): 186 % of control
T/C (dose: 8.6 mg/kg/injection, schedule: Q03HX008 (ip), vehicle: saline): 150 % of control
T/C (dose: 17.2 mg/kg/injection, schedule: Q01DX009 (ip), vehicle: saline): 213 % of control
T/C (dose: 17.2 mg/kg/injection, schedule: Q03HX008 (ip), vehicle: saline): 165 % of control
T/C (dose: 34.4 mg/kg/injection, schedule: Q03HX008 (ip), vehicle: saline): 200 % of control
T/C (dose: 34.5 mg/kg/injection, schedule: Q03HX008 (ip), vehicle: saline): 250 % of control
T/C (dose: 68.8 mg/kg/injection, schedule: Q03HX008 (ip), vehicle: saline): 315 % of control
T/C (dose: 138.0 mg/kg/injection, schedule: Q03HX008 (ip), vehicle: saline): 168 % of control
T/C (dose: 275.0 mg/kg/injection, schedule: Q03HX008 (ip), vehicle: saline): 163 % of control

CCN1C(=O)CC([Se]c2ccccc2)C1=O (centres undefined)
T/C (dose: 6.25 mg/kg/injection, schedule: Q04DX003 (ip), vehicle: Klucel (hydroxypropylcellulose) (HPC)): 99 % of control and 103 % of control
T/C (dose: 12.5 mg/kg/injection, schedule: Q04DX003 (ip), vehicle: Klucel (hydroxypropylcellulose) (HPC)): 99 % of control and 102 % of control
T/C (dose: 25.0 mg/kg/injection, schedule: Q04DX003 (ip), vehicle: Klucel (hydroxypropylcellulose) (HPC)): 100 % of control and 105 % of control
T/C (dose: 50.0 mg/kg/injection, schedule: Q04DX003 (ip), vehicle: Klucel (hydroxypropylcellulose) (HPC)): 103 % of control and 104 % of control
T/C (dose: 100.0 mg/kg/injection, schedule: Q04DX003 (ip), vehicle: Klucel (hydroxypropylcellulose) (HPC)): 100 % of control and 104 % of control

CN(C)CCSCC(=O)Nc1ccccc1Cl
T/C (dose: 60.0 mg/kg/injection, schedule: Q01DX005 (ip), vehicle: saline): 103 % of control
T/C (dose: 120.0 mg/kg/injection, schedule: Q01DX005 (ip), vehicle: saline): 106 % of control
T/C (dose: 240.0 mg/kg/injection, schedule: Q01DX005 (ip), vehicle: saline): 106 % of control

O=C1CCCC/C1=C/c1ccccc1
T/C (dose: 25.0 mg/kg/injection, schedule: Q01DX005 (ip), vehicle: distilled water + Tween-80 + alcohol): 98 % of control
T/C (dose: 50.0 mg/kg/injection, schedule: Q01DX005 (ip), vehicle: distilled water + Tween-80 + alcohol): 98 % of control
T/C (dose: 100.0 mg/kg/injection, schedule: Q01DX005 (ip), vehicle: distilled water + Tween-80 + alcohol): 100 % of control
T/C (dose: 200.0 mg/kg/injection, schedule: Q01DX005 (ip), vehicle: distilled water + Tween-80 + alcohol): 98 % of control

CCCCCCC[n+]1cccc(S(=O)(=O)N2CCOCC2)c1
T/C (dose: 12.5 mg/kg/injection, schedule: Q01DX009 (ip), vehicle: saline with Tween-80): 98 % of control
T/C (dose: 25.0 mg/kg/injection, schedule: Q01DX009 (ip), vehicle: saline with Tween-80): 98 % of control
T/C (dose: 50.0 mg/kg/injection, schedule: Q01DX009 (ip), vehicle: saline with Tween-80): 98 % of control

CC(=O)C(C)(CC#N)C(CC=O)CCC#N (centres undefined)
T/C [6]: 111 % of control

CSC(=S)/C(=C/Nc1ccccn1)c1ccccc1
T/C (dose: 0.93 mg/kg/injection, schedule: Q01DX005 (ip), vehicle: Klucel (hydroxypropylcellulose) (HPC)): 100 % of control
T/C (dose: 1.87 mg/kg/injection, schedule: Q01DX005 (ip), vehicle: Klucel (hydroxypropylcellulose) (HPC)): 94 % of control

CC(Oc1cc(Cl)c(Cl)cc1Cl)C(=O)NC(C(=O)O)C(C)C (centres undefined)
T/C [1]: 97 % of control and 100 % of control
T/C [2]: 91 % of control and 106 % of control
T/C [3]: 97 % of control and 111 % of control

COc1nc2c(ccn2C2OC(COC(C)=O)C(OC(C)=O)C(OC(C)=O)C2OC(C)=O)c(=O)n1C (centres undefined)
T/C [6]: 100 % of control
T/C [9]: 104 % of control
T/C (dose: 240.0 mg/kg/injection, schedule: Q01DX005 (ip), vehicle: saline with Tween-80): 95 % of control

O=C1CSC(c2ccccn2)N1CCN1C(=O)CSC1c1ccccn1 (centres undefined)
T/C (dose: 50.0 mg/kg/injection, schedule: Q01DX005 (ip), vehicle: Klucel (hydroxypropylcellulose) (HPC)): 94 % of control
T/C (dose: 100.0 mg/kg/injection, schedule: Q01DX005 (ip), vehicle: Klucel (hydroxypropylcellulose) (HPC)): 96 % of control
T/C (dose: 100.0 mg/kg/injection, schedule: Q04DX002 (ip), vehicle: saline with Tween-80): 97 % of control
T/C (dose: 200.0 mg/kg/injection, schedule: Q01DX005 (ip), vehicle: Klucel (hydroxypropylcellulose) (HPC)): 97 % of control
T/C (dose: 200.0 mg/kg/injection, schedule: Q04DX002 (ip), vehicle: saline with Tween-80): 102 % of control
T/C (dose: 400.0 mg/kg/injection, schedule: Q04DX002 (ip), vehicle: saline with Tween-80): 93 % of control

Fc1ccc(CSC(=S)Nc2ccc(Br)cc2)cc1
T/C (dose: 50.0 mg/kg/injection, schedule: Q01DX009 (ip), vehicle: suspension in saline): 100 % of control
T/C (dose: 100.0 mg/kg/injection, schedule: Q01DX009 (ip), vehicle: suspension in saline): 108 % of control
T/C (dose: 200.0 mg/kg/injection, schedule: Q01DX009 (ip), vehicle: suspension in saline): 101 % of control

O=[N+]([O-])c1cccn2nc(COCCO)nc12
T/C (dose: 12.5 mg/kg/injection, schedule: Q01DX005 (ip), vehicle: saline with Tween-80): 97 % of control
T/C (dose: 25.0 mg/kg/injection, schedule: Q01DX005 (ip), vehicle: saline with Tween-80): 94 % of control
T/C [1]: 97 % of control
T/C (dose: 100.0 mg/kg/injection, schedule: Q01DX005 (ip), vehicle: saline): 113 % of control
T/C (dose: 200.0 mg/kg/injection, schedule: Q01DX005 (ip), vehicle: saline): 109 % of control

NNC(=O)CN1c2ccccc2Sc2ccc(Cl)cc21
T/C (dose: 6.25 mg/kg/injection, schedule: Q01DX009 (ip), vehicle: Klucel (hydroxypropylcellulose) (HPC)): 104 % of control
T/C (dose: 12.5 mg/kg/injection, schedule: Q01DX009 (ip), vehicle: Klucel (hydroxypropylcellulose) (HPC)): 95 % of control
T/C (dose: 25.0 mg/kg/injection, schedule: Q01DX009 (ip), vehicle: Klucel (hydroxypropylcellulose) (HPC)): 97 % of control
T/C (dose: 50.0 mg/kg/injection, schedule: Q01DX009 (ip), vehicle: Klucel (hydroxypropylcellulose) (HPC)): 99 % of control

O=[N+]([O-])c1ccc(/C=C/C=C/C=C/C=C/c2ccc(S(=O)(=O)F)cc2Cl)c(Cl)c1
T/C [4]: 99 % of control
T/C [5]: 104 % of control
T/C [6]: 92 % of control and 98 % of control

CC(C)CC(N)C(=O)NC(C(N)=O)c1ccc(O)cc1 (centres undefined) (H-Leu-[Hpg]-NH2; configuration not given here)
T/C [10]: 101 % of control
T/C [11]: 92 % of control
T/C [12]: 88 % of control
